Test results from US20230023092A1, “TREATMENT OF DEPRESSION AND OTHER VARIOUS DISORDERS WITH PSILOCYBIN” (COMPASS […], priority 2019, published 2023).

Tested on: healthy subjects
Assay: Life Changes Inventory (LCI)
Format: in vivo, human
From the text: In some embodiments, the Life Changes Inventory (LCI) questionnaire is utilized to evaluate the safety and/or efficacy of psilocybin. The LCI is designed as a questionnaire to investigate those variables present in the day-to-day experience of adults that might relate either to stability or decline of intellectual ability.
The following list of outcome measures are non-exhaustive. • a. The short-term change from Baseline (Day −1 [Visit 2]) to Day 7 (Visit 5) in cognitive measures of attention, spatial and working memory and executive function was measured by a composite score of the CANTAB Panel (Spatial Working Memory [SWM], Rapid Visual Information Processing [RVP], Paired Associates Learning [PAL]). • b. The short-term change from Baseline (Day −1 [Visit 2]) to Day 7 (Visit 5) in Social Cognition Panel scales (Pictorial Empathy Test [PET], Reading the Mind in the Eyes Test [RMET], Toronto Empathy Questionnaire [TEQ], Social Value Orientation [SVO], Scale of Social Responsibility [SSR]). • c. The change from Baseline (Day −1 [Visit 2]) to Day 28 (Visit 6) in cognitive measures of attention, spatial and working memory and executive function as measured by a composite score of the CANTAB Panel (SWM, RVP, PAL). • d. The long-term change from Baseline (Day −1 [Visit 2]) to Day 84 (Visit 7) in Social Cognition Panel scales (PET, RMET, TEQ, SVO, SSR). • e. Dose-related differences between cognitive effects of psilocybin at Baseline (Day −1 [Visit 2]), Day 7 (Visit 5) and Day 28 (Visit 6), as measured by a composite score of the CANTAB Panel (SWM, RVP, PAL). • f. Dose-related differences between psychological effects of psilocybin at Baseline (Day −1 [Visit 2]), Day 7 (Visit 5) and Day 84 (Visit 7), as measured by Social Cognition Panel scales (PET, RMET, TEQ, SVO, SSR). • g. Differences in cognitive effects of psilocybin between psilocybin-naïve and experienced subjects at Baseline (Day −1 [Visit 2]), Day 7 (Visit 5) and Day 28 (Visit 6), as measured by a composite score of the CANTAB Panel (SWM, RVP, PAL). • h. Differences in Positive and Negative Affect Schedule (PANAS) after study drug administration on Day 0 (Visit 3). • i. Differences between psilocybin and placebo in the Emotion Recognition Test (ERT), Intra-Extra Dimensional Set Shift (IED), One Touch Stockings (OTS), Verbal Fluency and Digit Span Forward at Day 7 (Visit 5). • j. A composite score of the CANTAB Panel, including the following tests: • i. Spatial Working Memory (SWM) (performed at Visit 2, Visit 5, and Visit 6). • ii. Rapid Visual Information Processing (RVP) (performed at Visit 2, Visit 5, and Visit 6). • iii. Paired Associates Learning (PAL) (performed at Visit 2, Visit 5, and Visit 6). • k. Cognitive Flexibility Panel • i. Emotion Recognition Task (ERT) (performed at Visit 5). • ii. Intra-Extra Dimensional Set Shift (IED) (performed at Visit 5). • iii. One Touch Stockings (OTS) (performed at Visit 5). • iv. Verbal Fluency (performed at Visit 5). • v. Digit Span Forward (performed at Visit 5). • l. Five Dimension Altered States of Consciousness questionnaire (5D-ASC) (performed at Visit 3). • m. PANAS (performed at Visit 2 and Visit 3). • n. NEO-Five Factor Inventory (NEO-FFI) (performed at Visit 2, Visit 5, and Visit 7). • o. Symptom Checklist-90 item (SCL-90) (performed at Visit 2, Visit 5, and Visit 7). • p. Life Changes Inventory (LCI): The LCI measures changes in attitudes and values after near-death experiences often used to evaluate personal transformation following spiritually oriented experiences and practices. (performed at Visit 5 and Visit 7). • q. Social Cognition Panel scales • i. Pictorial Empathy Test (PET) (performed at Visit 2, Visit 5, and Visit 7). • ii. Reading the Mind in the Eyes Test (RMET) (performed at Visit 2, Visit 5, and Visit 7). • iii. Social Value Orientation (SVO) (performed at Visit 2, Visit 5, and Visit 7). • iv. Toronto Empathy Questionnaire (TEQ) (performed at Visit 2, Visit 5, and Visit 7). • v. […]

## CN(C)CCc1c[nH]c2cccc(OP(=O)(O)O)c12 [Psilocybin, psilocybin]
Day 7
  LCI appreciation for life, LS mean difference Psilocybin 10 mg-Placebo: 0.6
  LCI appreciation for life, LS mean difference Psilocybin 25 mg-Placebo: 0.5
  LCI appreciation for life, LS mean difference Psilocybin (25 mg-10 mg): −0.2
  LCI appreciation of death, LS mean difference Psilocybin 10 mg-Placebo: 0.1
  LCI appreciation of death, LS mean difference Psilocybin 25 mg-Placebo: 0.1
  LCI appreciation of death, LS mean difference Psilocybin (25 mg-10 mg): −0.0
  LCI concern for others, LS mean difference Psilocybin 10 mg-Placebo: 0.4
  LCI concern for others, LS mean difference Psilocybin 25 mg-Placebo: 0.4
  LCI concern for others, LS mean difference Psilocybin (25 mg-10 mg): 0.0
  LCI concern for worldly achievement, LS mean difference Psilocybin 10 mg-Placebo: −0.2
  LCI concern for worldly achievement, LS mean difference Psilocybin 25 mg-Placebo: −0.1
  LCI concern for worldly achievement, LS mean difference Psilocybin (25 mg-10 mg): 0.1
  LCI concern social, LS mean difference Psilocybin 10 mg-Placebo: 0.1
  LCI concern social, LS mean difference Psilocybin 25 mg-Placebo: 0.2
  LCI concern social, LS mean difference Psilocybin (25 mg-10 mg): 0.1
  LCI quest for meaning, LS mean difference Psilocybin 10 mg-Placebo: 0.4
  LCI quest for meaning, LS mean difference Psilocybin 25 mg-Placebo: 0.4
  LCI quest for meaning, LS mean difference Psilocybin (25 mg-10 mg): 0.0
  LCI religiousness, LS mean difference Psilocybin 10 mg-Placebo: −0.1
  LCI religiousness, LS mean difference Psilocybin 25 mg-Placebo: 0.0
  LCI religiousness, LS mean difference Psilocybin (25 mg-10 mg): 0.1
  LCI self-acceptance, LS mean difference Psilocybin 10 mg-Placebo: 0.7
  LCI self-acceptance, LS mean difference Psilocybin 25 mg-Placebo: 0.5
  LCI self-acceptance, LS mean difference Psilocybin (25 mg-10 mg): −0.1
  LCI spirituality, LS mean difference Psilocybin 10 mg-Placebo: 0.3
  LCI spirituality, LS mean difference Psilocybin 25 mg-Placebo: 0.2
  LCI spirituality, LS mean difference Psilocybin (25 mg-10 mg): −0.1
  LCI-absolute change, LS mean difference Psilocybin 10 mg-Placebo: 0.4
  LCI-absolute change, LS mean difference Psilocybin 25 mg-Placebo: 0.3
  LCI-absolute change, LS mean difference Psilocybin (25 mg-10 mg): −0.1
Day 84
  LCI appreciation for life, LS mean difference Psilocybin 10 mg-Placebo: 0.6
  LCI appreciation for life, LS mean difference Psilocybin 25 mg-Placebo: 0.5
  LCI appreciation for life, LS mean difference Psilocybin (25 mg-10 mg): −0.1
  LCI appreciation of death, LS mean difference Psilocybin 10 mg-Placebo: 0.2
  LCI appreciation of death, LS mean difference Psilocybin 25 mg-Placebo: 0.2
  LCI appreciation of death, LS mean difference Psilocybin (25 mg-10 mg): 0.0
  LCI concern for others, LS mean difference Psilocybin 10 mg-Placebo: 0.4
  LCI concern for others, LS mean difference Psilocybin 25 mg-Placebo: 0.5
  LCI concern for others, LS mean difference Psilocybin (25 mg-10 mg): 0.1
  LCI concern for worldly achievement, LS mean difference Psilocybin 10 mg-Placebo: −0.2
  LCI concern for worldly achievement, LS mean difference Psilocybin 25 mg-Placebo: −0.1
  LCI concern for worldly achievement, LS mean difference Psilocybin (25 mg-10 mg): 0.1
  LCI concern social, LS mean difference Psilocybin 10 mg-Placebo: 0.1
  LCI concern social, LS mean difference Psilocybin 25 mg-Placebo: 0.1
  LCI concern social, LS mean difference Psilocybin (25 mg-10 mg): 0.0
  LCI quest for meaning, LS mean difference Psilocybin 10 mg-Placebo: 0.4
  LCI quest for meaning, LS mean difference Psilocybin 25 mg-Placebo: 0.4
  LCI quest for meaning, LS mean difference Psilocybin (25 mg-10 mg): −0.0
  LCI religiousness, LS mean difference Psilocybin 10 mg-Placebo: −0.0
  LCI religiousness, LS mean difference Psilocybin 25 mg-Placebo: 0.0
  LCI religiousness, LS mean difference Psilocybin (25 mg-10 mg): 0.1
  LCI self-acceptance, LS mean difference Psilocybin 10 mg-Placebo: 0.5
  LCI self-acceptance, LS mean difference Psilocybin 25 mg-Placebo: 0.5
  LCI self-acceptance, LS mean difference Psilocybin (25 mg-10 mg): 0.0
  LCI spirituality, LS mean difference Psilocybin 10 mg-Placebo: 0.4
  LCI spirituality, LS mean difference Psilocybin 25 mg-Placebo: 0.4
  LCI spirituality, LS mean difference Psilocybin (25 mg-10 mg): −0.0
  LCI-absolute change, LS mean difference Psilocybin 10 mg-Placebo: 0.4
  LCI-absolute change, LS mean difference Psilocybin 25 mg-Placebo: 0.4
  LCI-absolute change, LS mean difference Psilocybin (25 mg-10 mg): −0.0
Psilocybin 10 mg, Day 7
  LCI appreciation for life, LS mean: 0.8
  LCI appreciation of death, LS mean: 0.2
  LCI concern for others, LS mean: 0.5
  LCI concern for worldly achievement, LS mean: −0.2
  LCI concern social, LS mean: 0.2
  LCI quest for meaning, LS mean: 0.5
  LCI religiousness, LS mean: −0.0
  LCI self-acceptance, LS mean: 0.8
  LCI spirituality, LS mean: 0.5
  LCI-absolute change, LS mean: 0.5
Psilocybin 10 mg, Day 84
  LCI appreciation for life, LS mean: 0.8
  LCI appreciation of death, LS mean: 0.2
  LCI concern for others, LS mean: 0.5
  LCI concern for worldly achievement, LS mean: −0.2
  LCI concern social, LS mean: 0.2
  LCI quest for meaning, LS mean: 0.5
  LCI religiousness, LS mean: −0.0
  LCI self-acceptance, LS mean: 0.6
  LCI spirituality, LS mean: 0.5
  LCI-absolute change, LS mean: 0.5
Psilocybin 25 mg, Day 7
  LCI appreciation for life, LS mean: 0.6
  LCI appreciation of death, LS mean: 0.1
  LCI concern for others, LS mean: 0.6
  LCI concern for worldly achievement, LS mean: −0.2
  LCI concern social, LS mean: 0.2
  LCI quest for meaning, LS mean: 0.5
  LCI religiousness, LS mean: 0.0
  LCI self-acceptance, LS mean: 0.6
  LCI spirituality, LS mean: 0.4
  LCI-absolute change, LS mean: 0.4
Psilocybin 25 mg, Day 84
  LCI appreciation for life, LS mean: 0.7
  LCI appreciation of death, LS mean: 0.3
  LCI concern for others, LS mean: 0.7
  LCI concern for worldly achievement, LS mean: −0.1
  LCI concern social, LS mean: 0.2
  LCI quest for meaning, LS mean: 0.5
  LCI religiousness, LS mean: 0.0
  LCI self-acceptance, LS mean: 0.6
  LCI spirituality, LS mean: 0.5
  LCI-absolute change, LS mean: 0.5
